Results as given in patent US7550437B2, “Compositions for preventing and treating digestive organs diseases” (Fuso Pharmaceutical Industries, Ltd., priority 2000, dated 2009).
No end group written: not given here.

Experiments:
[1] = test system: gastric acid secretion accelerated by carbachol; assay: Carbachol-induced gastric acid secretion in pylorus-ligated rats; format: in vivo, rat; conditions: carbachol 60 μg/kg s.c., amastatin 2.5 μmol/kg i.v., FIG. 1
Protocol: In an experiment, male Wistar rats at 5 weeks of age were used. After each animal was pre-bred for one week under the circumstance of a room temperature of 23±2° C., the humidity of 50±5%, and the light-and-darkness cycle (light term: from 07:00 to 19:00) of 12 hours, each animal was subjected to the experiment. Water and solid feed were supplied freely during the pre-breeding period and the experiment period.
Moreover, the number of animals used in the experiment was 4-14 animals in all cases, and the results were shown by Mean±Standard Error. The significant difference test was performed by Tukey's multiple comparison test.
A rat was anesthetized with ether after 18-24 hours of fasting, and an abdomen was incised by about 1 cm below a lower end of xiphoid sternum. Duodenum was pinched out of the opened abdominal hole, a part joining pylorus and duodenum was ligated, and the incised abdomen was sutured. After 30 minutes, the rat was exsanguinated to kill, the stomach was isolated, and gastric juice was collected. After the collected gastric juice was filtered, the acidity in the gastric juice was measured by a titration method. […]

[2] = test system: rat gastric mucosal cells; assay: Mucin secretion from rat gastric mucosal cells in vivo (galactose in gastric juice); conditions: amastatin 2.5 μmol/kg i.v., FIG. 2
Protocol: The gastric pylorus was ligated by the same procedure as described above. Amastatin (2.5 μmol/kg) was administered intravenously immediately after the ligation, and SLp-NH2, LSp-NH2 or tcLP-NH2 was administered intravenously at 1 minute after administration of amastatin. 30 minutes after ligation, the rats was exsanguinated to kill, the stomach was isolated, and the gastric juice was collected. The collected sample of gastric juice was centrifuged at 10000×g for 30 min, and the supernatant was subjected to ultrafiltration with Millipore MC FREE (MW10000), followed by lyophilization. 2M TFA was added to the lyophilized sample, which was hydrolyzed under the conditions at 100° C. for 4 hours. Centrifugal separation was then performed and the supernatant was evaporated to dryness. 200 μL of 0.1 M Tris-HCl was added to the evaporated and dried sample to dissolve it. After 150 μL of a reaction solution containing galactose oxidase (1U), peroxidase (0.5 mU) and HPPA (0.25 μmol) was added to 50 μL of the sample and the mixture was incubated at 37° C. for 30 minutes, an amount of galactose was measured at an excitation wavelength of 320 nm and an fluorescence wavelength of 405 nm.

[3] = biological target: T1, PAR-2 (Homo sapiens, UniProt P55085); conditions: literature statement; cited from earlier work
T1 sequence (P55085 26-397): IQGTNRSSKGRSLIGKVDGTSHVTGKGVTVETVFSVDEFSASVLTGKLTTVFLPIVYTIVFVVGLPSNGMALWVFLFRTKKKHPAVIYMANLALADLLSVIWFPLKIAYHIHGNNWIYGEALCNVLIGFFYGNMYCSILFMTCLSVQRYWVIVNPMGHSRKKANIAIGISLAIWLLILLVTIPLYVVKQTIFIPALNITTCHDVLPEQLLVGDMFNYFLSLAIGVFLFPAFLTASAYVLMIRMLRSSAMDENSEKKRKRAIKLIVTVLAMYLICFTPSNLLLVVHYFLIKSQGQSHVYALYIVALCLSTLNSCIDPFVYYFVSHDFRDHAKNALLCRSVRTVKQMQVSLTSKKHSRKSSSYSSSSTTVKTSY

[4] = test system: gastric mucosa lesion by ethanol; assay: Ethanol-induced gastric mucosa lesion; format: in vivo, rat; conditions: 0.25 and 0.5 μmol/kg i.v. 5 min before 75% ethanol p.o.; amastatin 2.5 μmol/kg; FIG. 3
Protocol: (§1) Preparation of ethanol- and hydrochloric acid-ethanol-induced gastric mucosa lesion was performed according to the method of Robert et al. (Robert, A. et al., Gastroenteral, 77, 433-443, 1979). That is, after the rats were fasted for 18 to 24 hours, 1 mL of 75% ethanol or 60% ethanol containing 150 mM hydrochloric acid was administered orally. Rats were exsanguinated to kill after 60 min and their stomaches were isolated. The isolated stomach was incised along with greater curvature, washed and fixed with 10% formaldehyde, and an area of gastric mucosa lesion was measured using Image analyzing software, Mac acpect (Mitani corporation, Chiba prefecture). SLp-NH2 was administered intravenously at 5 minutes before administration of 75% ethanol or 60% ethanol containing 150 mM hydrochloric acid. Amastatin (2.5 μmol/kg) was administered at 1 minute before administration of SLp-NH2.

[5] = test system: lesion in gastric mucosa by hydrochloric acid-ethanol; assay: Hydrochloric acid-ethanol-induced gastric mucosa lesion; format: in vivo, rat; conditions: 0.25 and 0.5 μmol/kg i.v. 5 min before 60% ethanol containing 150 mM hydrochloric acid p.o.; amastatin 2.5 μmol/kg; FIG. 4
Protocol: as §1

[6] = biological target: T2, human PAR-1 (Homo sapiens, UniProt P25116); conditions: literature statement; cited from earlier work
T2 sequence (P25116 22-425): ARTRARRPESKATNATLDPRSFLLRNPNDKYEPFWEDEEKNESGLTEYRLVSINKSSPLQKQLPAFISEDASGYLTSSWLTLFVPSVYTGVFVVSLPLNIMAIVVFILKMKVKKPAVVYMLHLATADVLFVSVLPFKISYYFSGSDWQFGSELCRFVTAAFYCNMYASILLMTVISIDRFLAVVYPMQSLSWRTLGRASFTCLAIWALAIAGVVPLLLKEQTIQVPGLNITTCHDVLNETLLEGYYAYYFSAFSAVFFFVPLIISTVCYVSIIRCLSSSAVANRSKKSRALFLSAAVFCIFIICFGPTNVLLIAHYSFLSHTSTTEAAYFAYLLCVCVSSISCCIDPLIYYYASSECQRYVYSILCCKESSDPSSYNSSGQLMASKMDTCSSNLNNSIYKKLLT

## Leu-Ser-Ile-Gly-Arg-Leu-NH2 (LSIGRL-NH2) [LSp-NH2, control peptide for SLp-NH2]
[1]; 5 μmol/kg i.v.
  effect on gastric acid secretion accelerated by carbachol (amount of secreted gastric acid): did not affect
[2]; i.v., dose not given
  effect on mucin secretion from rat gastric mucosal cells: did not affect mucin secretion
[3]
  agonist activity on PAR-2: inactive substance

## Ser-Leu-Ile-Gly-Arg-Leu-NH2 (SLIGRL-NH2) [SLp-NH2]
[1]; 1.25 to 5 μmol/kg i.v.
  effect on gastric acid secretion accelerated by carbachol (amount of secreted gastric acid): inhibited dose-dependently
[2]; 0.02 to 5 μmol/kg i.v.
  effect on mucin secretion from rat gastric mucosal cells: accelerated dose-dependently
[4]
  effect on gastric mucosa lesion (area) by ethanol: showed the protective effect
[5]
  effect on gastric mucosa lesion (area) by hydrochloric acid-ethanol: the protective effect was shown

## Ser-Phe-Leu-Leu-Arg-NH2 (SFLLR-NH2) [SFp-NH2]
[3]
  agonist activity on PAR-2: week agonist activity on PAR-2
[6]
  agonist activity on human PAR-1: agonist activity on human PAR-1

## trans-cinnamoyl-Leu-Ile-Gly-Arg-Leu-ornithine-NH2 [tcLp-NH2]
[2]; i.v., dose not given
  effect on mucin secretion from rat gastric mucosal cells: also accelerated the mucin secretion
[3]
  agonist activity on PAR-2: specifically activate PAR-2
